Consider 15 molecules from patent US20240287154A1, “MC3R AGONIST PEPTIDES” (The Regents of the University of Michigan, priority 2021, published 2024).

For orientation: EC50 means the concentration at which the effect is half-maximal. High values mean a need for much substance, low ones an effect from little substance.

Each structure is given as a SMILES string. Non-standard residues stand in square brackets, D forms with d. Residues, ends and D or L forms follow the SMILES beside them. Phe(4-Br) = N[C@@H](Cc1ccc(Br)cc1)C(=O)O; Phe(4-Cl) = N[C@@H](Cc1ccc(Cl)cc1)C(=O)O; Phe(4-I) = N[C@@H](Cc1ccc(I)cc1)C(=O)O; 2Nal = N[C@@H](Cc1ccc2ccccc2c1)C(=O)O; NMeY = CN[C@@H](Cc1ccc(O)cc1)C(=O)O; Nle = CCCC[C@H](N)C(=O)O; dAbu = CC[C@@H](N)C(=O)O

One assay addresses T1, human MC3R (Homo sapiens, UniProt P41968).
T1 construct: expressed in transfected cells
Put plainly: Intracellular cAMP levels in live cells, MC3R agonist activity. It is filed as cell-based. Conditions: cAMP split-luciferase reporter cell line stably expressing human MC3R; direct agonist effect, measurement window 1. How it is done:
The stable cell lines were grown and maintained in selection media consisting of Dulbecco's modified Eagle media (DMEM) with 4.5 g/l D-glucose, and 4 mM L-glutamine (Thermo Fisher Scientific, Waltham, MA), supplemented with 10% fetal bovine serum, 100 units/ml penicillin, 100 μg/ml streptomycin, 2.5 μg/ml amphotericin B, 200 μg/ml hygromycin B (for positive selection of the GScAMP22f luciferase reporter), and Geneticin™ (G418) 700 μg/ml (for MC3R or MC4R selection). Actual serum concentration during the assay is estimated to be about 1%. Cell line identity is routinely verified by qPCR and MC3R- and MC4R-specific oligonucleotides.
The assay for the determination of the CAMP response in live cells was described previously. […] Ccells were seeded at a density of 20,000 cells per well using 384-well poly-D lysine-coated, clear bottom, and black-wall assay plates (Corning Inc. Corning, NJ). Cells were allowed to attach to the plates for 18 to 24 h after which growth media was removed and 20 ul of 4% D-luciferin (Promega) in CO2 independent, serum-free medium (Thermo Fisher Scientific) was added to each well. […] Intracellular cAMP levels were measured using an FDSS 7000EX Functional Drug Screening System (Hamamatsu Photonics, Hamamatsu, Japan) in the Center for Chemical Genomics at the Life Sciences Institute. This instrument allowed the in-line addition of test-peptides and receptor agonists while simultaneously acquiring the luminescence signal from live cells. […] A submaximal forskolin (20 μM) concentration was also included to serve as a normalization reference to account for cell number variations and differences in assay transducer efficiency between cell lines.
With this set up it was possible to evaluate the direct agonist effect of the test-peptides on the MC3R and MC4R cell lines during measurement window 1, while the antagonist profile in the presence of EC90 α-MSH was determined on measurement window 2. […] EC50 or IC50 potency values were determined by non-linear regression by fitting the data to a sigmoid four-parameter variable slope model using the GraphPad Prism version 8.4 software package (San Diego CA).
Background: Changes in cAMP serve as a functional read-out for many G protein-coupled receptors.

The target in a further assay is human MC4R (Homo sapiens, UniProt P32245). Description: Intracellular cAMP levels in live cells, MC3R selectivity relative to MC4R. It counts as cell-based. To be noted: cAMP assays in human MC3R and human MC4R stable cell lines.
Sequence of human MC4R (P32245 whole entry): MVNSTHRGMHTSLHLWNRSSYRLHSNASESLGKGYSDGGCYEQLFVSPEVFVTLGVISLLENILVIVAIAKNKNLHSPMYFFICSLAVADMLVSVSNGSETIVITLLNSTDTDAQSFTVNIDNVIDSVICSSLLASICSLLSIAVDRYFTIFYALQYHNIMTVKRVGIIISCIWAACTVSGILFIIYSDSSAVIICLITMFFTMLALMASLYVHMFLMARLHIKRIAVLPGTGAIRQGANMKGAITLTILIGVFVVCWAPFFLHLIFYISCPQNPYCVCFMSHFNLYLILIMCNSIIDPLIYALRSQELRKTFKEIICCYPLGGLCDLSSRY

T1 sequence (P41968 whole entry): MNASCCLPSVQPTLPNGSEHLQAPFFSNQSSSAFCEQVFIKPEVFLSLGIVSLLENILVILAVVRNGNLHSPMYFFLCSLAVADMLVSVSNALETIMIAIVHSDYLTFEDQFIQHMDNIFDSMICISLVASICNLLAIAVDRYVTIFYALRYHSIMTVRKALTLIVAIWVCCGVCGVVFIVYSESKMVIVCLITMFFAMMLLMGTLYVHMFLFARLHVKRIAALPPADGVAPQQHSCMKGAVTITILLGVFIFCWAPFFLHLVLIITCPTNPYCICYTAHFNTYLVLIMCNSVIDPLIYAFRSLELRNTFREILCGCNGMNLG

For the molecule `CCCC[C@H](NC(C)=O)C(=O)N[C@H](C)C(=O)N[C@@H](Cc1c[nH]cn1)C(=O)N[C@@H](Cc1ccc(Br)cc1)C(=O)N[C@@H](CCCNC(=N)N)C(=O)N[C@H](Cc1c[nH]c2ccccc12)C(=O)N[C@@H](CC(=O)O)C(=O)N[C@@H](CCCNC(=N)N)C(=O)N[C@@H](Cc1ccccc1)C(=O)NCC(=O)O` [CTX-1165, Nle-D-Ala-His-Phe(4-Br)-Arg-D-Trp-Asp-Arg-Phe-Gly] (Ac-[Nle][dA]H[Phe(4-Br)]R[dW]DRFG-OH), at human MC3R, the EC50 was determined as 3 nM. The “MC3R selectivity (relative to MC4R)” value on human MC4R turned out to be 5598.
On human MC3R, `CCCC[C@H](NC(C)=O)C(=O)N[C@H](CC)C(=O)N[C@@H](Cc1c[nH]cn1)C(=O)N[C@@H](Cc1ccc(I)cc1)C(=O)N[C@@H](CCCNC(=N)N)C(=O)N[C@H](Cc1c[nH]c2ccccc12)C(=O)N[C@@H](CC(=O)O)C(=O)N[C@@H](CCCNC(=N)N)C(=O)N[C@@H](Cc1ccccc1)C(=O)NCC(=O)O` [CTX-1191, Nle-D-Abu-His-Phe(4-I)-Arg-D-Trp-Asp-Arg-Phe-Gly] (Ac-[Nle][dAbu]H[Phe(4-I)]R[dW]DRFG-OH) had an EC50 of 3.9 nM. Moreover, the “MC3R selectivity (relative to MC4R)” value on human MC4R was determined as 470.
The molecule `CCCC[C@H](NC(C)=O)C(=O)N[C@H](C)C(=O)N[C@@H](Cc1c[nH]cn1)C(=O)N[C@@H](Cc1ccc(I)cc1)C(=O)N[C@@H](CCCNC(=N)N)C(=O)N[C@H](Cc1c[nH]c2ccccc12)C(=O)N[C@@H](CC(=O)O)C(=O)N[C@@H](CCCNC(=N)N)C(=O)N[C@@H](Cc1ccccc1)C(N)=O` [CTX-1169, Nle-D-Ala-His-Phe(4-I)-Arg-D-Trp-Asp-Arg-Phe] (Ac-[Nle][dA]H[Phe(4-I)]R[dW]DRF-NH2) came in with a 50% effective concentration (EC50) at human MC3R of 4.8 nM. Further, the “MC3R selectivity (relative to MC4R)” value on human MC4R is recorded as 200.
`CCCC[C@H](NC(C)=O)C(=O)N[C@H](C)C(=O)N[C@@H](Cc1c[nH]cn1)C(=O)N[C@@H](Cc1ccccc1)C(=O)N[C@@H](CCCNC(=N)N)C(=O)N[C@H](Cc1c[nH]c2ccccc12)C(=O)N[C@@H](CC(=O)O)C(=O)N[C@H](CCCNC(=N)N)C(=O)N[C@@H](Cc1ccccc1)C(=O)NCC(=O)O` [CTX-1146, Nle-D-Ala-His-Phe-Arg-D-Trp-Asp-D-Arg-Phe-Gly] (Ac-[Nle][dA]HFR[dW]D[dR]FG-OH) had an EC50 on human MC3R of 170 nM.
Molecule `CCCC[C@H](NC(C)=O)C(=O)N[C@H](CC)C(=O)N[C@@H](Cc1c[nH]cn1)C(=O)N[C@@H](Cc1ccccc1)C(=O)N[C@@H](CCCNC(=N)N)C(=O)N[C@H](Cc1c[nH]c2ccccc12)C(=O)N[C@@H](CC(=O)O)C(=O)N[C@@H](CCCNC(=N)N)C(=O)N[C@@H](Cc1ccccc1)C(=O)NCC(=O)O` [CTX-1144, Nle-D-Abu-His-Phe-Arg-D-Trp-Asp-Arg-Phe-Gly] (Ac-[Nle][dAbu]HFR[dW]DRFG-OH) returned an EC50 on human MC3R of 6.6 nM. Further, the “MC3R selectivity (relative to MC4R)” value at human MC4R is listed as 2,633.
In the case of `CCCC[C@H](NC(C)=O)C(=O)N[C@H](C)C(=O)N[C@@H](Cc1c[nH]cn1)C(=O)N[C@@H](Cc1ccccc1)C(=O)N[C@@H](CCCNC(=N)N)C(=O)N[C@H](Cc1c[nH]c2ccccc12)C(=O)NCC(=O)N[C@@H](CCCCN)C(=O)N1CCC[C@H]1C(=O)N[C@H](C(N)=O)C(C)C` [CTX-1164, Nle-D-Ala-His-Phe-Arg-D-Trp-Gly-Lys-Pro-Val] (Ac-[Nle][dA]HFR[dW]GKPV-NH2), the response on human MC3R was half-maximal at 1.5 nM (EC50). Besides, the “MC3R selectivity (relative to MC4R)” value at human MC4R is on record as 83.
Molecule `CCCC[C@H](NC(=O)CNC(=O)COCCOCCNC(=O)CNC(=O)CCc1ccc(I)cc1)C(=O)N[C@H](C)C(=O)N[C@@H](Cc1c[nH]cn1)C(=O)N[C@@H](Cc1ccccc1)C(=O)N[C@@H](CCCNC(=N)N)C(=O)N[C@H](Cc1c[nH]c2ccccc12)C(=O)N[C@@H](CC(=O)O)C(=O)N[C@@H](CCCNC(=N)N)C(=O)N[C@H](Cc1ccccc1)C(=O)NCC(=O)O` [CTX-1154, Gly-Nle-D-Ala-His-Phe-Arg-D-Trp-Asp-Arg-D-Phe-Gly] returned an EC50 at human MC3R of 5.8 nM. The “MC3R selectivity (relative to MC4R)” value at human MC4R amounted to 1070.
Turning to `CCCC[C@H](NC(C)=O)C(=O)N[C@H](C)C(=O)N[C@@H](Cc1c[nH]cn1)C(=O)N[C@@H](Cc1ccc(I)cc1)C(=O)N[C@@H](CCCNC(=N)N)C(=O)N[C@H](Cc1c[nH]c2ccccc12)C(=O)NCC(N)=O` [CTX-1543, Nle-D-Ala-His-Phe(4-I)-Arg-D-Trp-Gly] (Ac-[Nle][dA]H[Phe(4-I)]R[dW]G-NH2), the EC50 on human MC3R turned out to be 3.1 nM. In addition, the “MC3R selectivity (relative to MC4R)” value on human MC4R was determined as 202.
The corresponding values for `CCCC[C@H](NC(=O)[C@@H](NC(=O)[C@@H](N)Cc1ccc(O)cc1)C(C)C)C(=O)N[C@H](C)C(=O)N[C@@H](Cc1c[nH]cn1)C(=O)N[C@@H](Cc1ccccc1)C(=O)N[C@@H](CCCNC(=N)N)C(=O)N[C@H](Cc1c[nH]c2ccccc12)C(=O)N[C@@H](CC(=O)O)C(=O)N[C@@H](CCCNC(=N)N)C(=O)N[C@@H](Cc1ccccc1)C(=O)NCC(N)=O` [CTX-1118, Tyr-Val-Nle-D-Ala-His-Phe-Arg-D-Trp-Asp-Arg-Phe-Gly] (H-YV[Nle][dA]HFR[dW]DRFG-NH2) are 1.2 nM and 59.
For `CCCC[C@H](NC(C)=O)C(=O)N[C@H](C)C(=O)N[C@@H](Cc1c[nH]cn1)C(=O)N[C@@H](Cc1ccc2ccccc2c1)C(=O)N[C@@H](CCCNC(=N)N)C(=O)N[C@H](Cc1c[nH]c2ccccc12)C(=O)N[C@@H](CC(=O)O)C(=O)N[C@@H](CCCNC(=N)N)C(=O)N[C@@H](Cc1ccccc1)C(=O)NCC(=O)O` [CTX-1512, Nle-D-Ala-His-Nal(2')-Arg-D-Trp-Asp-Arg-Phe-Gly] (Ac-[Nle][dA]H[2Nal]R[dW]DRFG-OH), in that order: 13.1 nM and 804.
For `CCCC[C@H](NC(=O)[C@@H](NC(=O)[C@@H](N)Cc1ccc(O)cc1)C(C)C)C(=O)N[C@H](C)C(=O)N[C@@H](Cc1c[nH]cn1)C(=O)N[C@@H](Cc1ccc(Cl)cc1)C(=O)N[C@@H](CCCNC(=N)N)C(=O)N[C@H](Cc1c[nH]c2ccccc12)C(=O)N[C@@H](CC(=O)O)C(=O)N[C@@H](CCCNC(=N)N)C(=O)N[C@@H](Cc1ccccc1)C(=O)NCC(=O)O` [CTX-2121, Tyr-Val-Nle-D-Ala-His-Phe(4-Cl)-Arg-D-Trp-Asp-Arg-Phe-Gly] (H-YV[Nle][dA]H[Phe(4-Cl)]R[dW]DRFG-OH), in that order: 2.5 nM and 93.
On human MC3R, `CCCC[C@H](NC(=O)[C@@H](NC(=O)[C@H](Cc1ccc(O)cc1)NC)C(C)C)C(=O)N[C@H](C)C(=O)N[C@@H](Cc1c[nH]cn1)C(=O)N[C@@H](Cc1ccccc1)C(=O)N[C@@H](CCCNC(=N)N)C(=O)N[C@H](Cc1c[nH]c2ccccc12)C(=O)N[C@@H](CC(=O)O)C(=O)N[C@@H](CCCNC(=N)N)C(=O)N[C@@H](Cc1ccccc1)C(=O)NCC(=O)O` [CTX-1124, NMe-Tyr-Val-Nle-D-Ala-His-Phe-Arg-D-Trp-Asp-Arg-Phe-Gly] (H-[NMeY]V[Nle][dA]HFR[dW]DRFG-OH) returned an EC50 of 1.7 nM. At human MC4R, the “MC3R selectivity (relative to MC4R)” value was 69.
For `CCCC[C@H](NC(=O)[C@@H](NC(=O)[C@@H](N)Cc1ccc(O)cc1)C(C)C)C(=O)N[C@H](C)C(=O)N[C@@H](Cc1c[nH]cn1)C(=O)N[C@@H](Cc1ccccc1)C(=O)N[C@@H](CCCNC(=N)N)C(=O)N[C@H](Cc1c[nH]c2ccccc12)C(=O)N[C@@H](CC(=O)O)C(=O)N[C@@H](CCCNC(=N)N)C(=O)N[C@@H](Cc1ccccc1)C(N)=O` [CTX-1119, Tyr-Val-Nle-D-Ala-His-Phe-Arg-D-Trp-Asp-Arg-Phe] (H-YV[Nle][dA]HFR[dW]DRF-NH2), a half-maximal response on human MC3R (EC50) required 1.9 nM. For the same molecule, the “MC3R selectivity (relative to MC4R)” value on human MC4R came to 24.
The corresponding values for `CCCC[C@H](NC(C)=O)C(=O)N[C@H](C)C(=O)N[C@@H](Cc1c[nH]cn1)C(=O)N[C@@H](Cc1ccccc1)C(=O)N[C@@H](CCCNC(=N)N)C(=O)N[C@H](Cc1c[nH]c2ccccc12)C(=O)N[C@@H](Cc1ccccc1)C(=O)N[C@@H](CCCNC(=N)N)C(=O)N[C@@H](Cc1ccccc1)C(=O)NCC(=O)O` [CTX-1529, Nle-D-Ala-His-Phe-Arg-D-Trp-Phe-Arg-Phe-Gly] (Ac-[Nle][dA]HFR[dW]FRFG-OH) are 4.8 nM and 82.
`CCCC[C@H](NC(=O)[C@@H](NC(=O)[C@@H](N)Cc1ccc(O)cc1)C(C)C)C(=O)N[C@@H](C)C(=O)N[C@@H](Cc1c[nH]cn1)C(=O)N[C@@H](Cc1ccccc1)C(=O)N[C@@H](CCCNC(=N)N)C(=O)N[C@H](Cc1c[nH]c2ccccc12)C(=O)N[C@@H](CC(=O)O)C(N)=O` [CTX-1129, Tyr-Val-Nle-Ala-His-Phe-Arg-D-Trp-Asp] (H-YV[Nle]AHFR[dW]D-NH2) gave a concentration for a half-maximal effect (EC50) at human MC3R of 1.2 nM. On human MC4R, the “MC3R selectivity (relative to MC4R)” value is given as 7.5.
